Test results published in article PMC6150246, “Design, Synthesis and Preliminary Biological Evaluation of Novel Benzyl Sulfoxide 2-Indolinone Derivatives as Anticancer Agents” (Molecules : A Journal of Synthetic Chemistry and Natural …, 2017).

Assays:
[1] = system: human cervical carcinoma cell line HeLa; experiment: MTS cytotoxicity assay, HeLa; assay type: cell-based; settings: for IC50: 48 h treatment; for activity against the HeLa cell line, in words: Indo 5 as reference
Description: (§1) To investigate the relationship between anticancer activity and tyrosine kinase inhibitory activity, these compounds were further evaluated for in vitro cytotoxicity against five cancer cell lines (human cervical carcinoma cell line HeLa, human breast carcinoma cell line MCF-7, human liver carcinoma cell line HepG2, human tongue carcinoma cell line SCC-15, and human lung carcinoma A549) using MTS assay. Indo 5 was also used as a reference compound.
(§2) The five types of human cancer cell lines (HeLa, HepG2, MCF-7, SCC-15, and A549) were cultured aseptically using Dulbecco’s modified Eagle’s medium (DMEM) supplemented with 10% (v/v) fetal bovine serum (FBS) and penicillin (100 units mL^−1)/streptomycin ([…]), at pH 7.2 and 5% CO2 humidified atmosphere at 37 °C. After attaining 80% confluence, the cells were trypsinized with 0.25 trypsin–EDTA and diluted with media to a fixed number of cells.
(§3) Cytotoxic activity was assessed using the standard MTS method by using triplicate assay. The cells were seeded into 96-well plates containing the medium at the density of 4000–6000 cells/mL (100 μL/well). The compounds were dissolved in DMSO to the concentration of 100 mM and diluted in a culture medium to the concentrations needed. After 24 h, the cultured cells were treated with concentrations of synthesized compounds (3.125 μM to 100 μM for tumor cells) for 48 h. After 48 h of incubation, the supernatant was replaced by fresh medium (100 μL/well) and 10 μL MTS reagent ([3-(4,5-dimethylthiazol-2-yl)-5-(3-carboxymethoxyphenyl)-2-(4-sulfophenyl)-2H-tetrazolium, inner salt]) was added to each well. The plate was further incubated for 3 h at 37 °C in 5% CO2. The optical absorbance in individual wells was determined at 492 nm using a microplate reader. The inhibition rates were calculated by the following formula: Inhibition rate (%) = (ODnegative control − ODsample)/(ODnegative control − ODblank) × 100%
(§4) IC50 was calculated using GraphPad Prism Software (GraphPad Prism 5, La Jolla, CA, USA). For each concentration, at least three wells were performed to calculate the average parameter.

[2] = system: human breast carcinoma cell line MCF-7; experiment: MTS cytotoxicity assay, MCF-7; assay type: cell-based
Description: as §1, §2, §3, §4

[3] = system: human liver carcinoma cell line HepG2; experiment: MTS cytotoxicity assay, HepG2; assay type: cell-based
Description: as §1, §2, §3, §4

[4] = system: human lung carcinoma A549; experiment: MTS cytotoxicity assay, A549; assay type: cell-based
Description: as §1, §2, §3, §4

[5] = system: human tongue carcinoma cell line SCC-15; experiment: MTS cytotoxicity assay, SCC-15; assay type: cell-based
Description: as §1, §2, §3, §4

tyrosine kinase = experiment: Tyrosine kinase inhibitory activity assay (self-made ELISA kit); assay type: biochemical; settings: for tyrosine kinase inhibitory activity, in words: Indo 5 as reference; for IC50: tyrosine kinase tissue extract, 37 °C 30 min
Experimental: The 16 designed compounds were first evaluated for tyrosine kinase inhibitory activity using ELISA assay. Indo 5 was used as a reference compound. The kit was self-made and is a very effective and economical method for preliminary tyrosine kinase inhibitory activity evaluation.
The tyrosine kinase inhibitory activity assay was performed as described in the literature. Details of the experimental procedures are presented in Supplementary Materials associated with this article. The IC50 was calculated using GraphPad Prism Software (GraphPad Prism 5, La Jolla, CA, USA). For each concentration, at least three wells were performed to calculate the average parameter.
100μL to each well. The plate was covered with its lid, and incubated at 4℃ overnight (10-12 hours). Then it was washed with 200μL elution buffer once, and dried at 37℃ for 2 h. After that, it was washed with 10mM PBS once, dried at room temperature, and then stored at 4℃ […]
2.1.5. Groups: Blank control: 60μL 1×tyrosine kinase buffer + 50μL 1×tyrosine kinase buffer containing ATP; Negative control: 10μL 1×tyrosine kinase buffer + 50μL 1×tyrosine kinase buffer containing tissue extract + 50μL 1×tyrosine kinase buffer containing ATP; Positive control: 10μL 1×tyrosine kinase buffer containing L029 + 50μL 1×tyrosine kinase buffer containing tissue extract + 50μL 1×tyrosine kinase buffer containing ATP; Vehicle control: 10μL 1×tyrosine kinase buffer containing DMSO + 50μL 1×tyrosine kinase buffer containing tissue extract + 50μL 1×tyrosine kinase buffer containing ATP; Compounds to be screened: 10μL 1×tyrosine kinase buffer containing compounds to be tested + 50μL 1× tyrosine kinase buffer containing tissue extract + 50μL 1×tyrosine kinase buffer containing ATP. (First, L029 and the compounds were allowed to interact with the tyrosine kinase tissue extract at room temperature for 10 min in advance, and did the same to the Blank control and the Vehicle control, then 50μL 1×tyrosine kinase buffer containing ATP was added to […]
2.1.6. Tyrosine kinase inhibitory activity assay: 1×tyrosine kinase buffer was prepared by evenly mixing 1 mL 10× tyrosine kinase buffer with 9 mL DDW. The tissue extract was diluted with 1×tyrosine kinase buffer appropriately, mixed with it gently and evenly, and placed on ice. ATP stock solution was mixed with 1×tyrosine kinase buffer at the final concentration of 3mM , and placed on ice. The microplate was added in respective wells with the groups formulated as above, covered with the lid, and incubated at 37℃ for 30 min. The microplate was washed with 200μL elution buffer and tapped until the residual buffer was removed, and this procedure was repeated for five times. To each well, 100μL antibody diluent (antibody elution buffer diluted at a ratio of 1:2000) was added. The microplate was covered with the lid, and incubated at room temperature for 30 min. OPD solution was prepared by addition of 4 mg OPD into a mixture of 4.86 mL 0.1 mol/L citric acid solution and 5.14 mL 0.2 mol/L Na2HPO4 solution, followed by addition of 50μL 30% H202 to allow for complete dissolution, and then was protected from light. The antibody solution was […]
removed. The microplate was washed with 200μL elution buffer and tapped until the residual buffer was removed, and this procedure was repeated for five times. 100μL freshly prepared OPD was added, and reacted at room temperature light tight for precisely 7 min. Negative […]
100μL 2.5 N H2SO4 was added to terminate the reaction. OD
2.1.7. Sample screening: Samples were screened preliminarily by using triplicate assay. The effect of the samples on tyrosine kinase inhibitory activity was tested, and the inhibition rate was calculated. Inhibition rate (%)=(ODnegative control – ODsample) / (ODnegative control* – ODblank) × 100%; *While calculating inhibition rate of positive drugs, ODnegative control in the equation was replaced with ODvehicle control to exclude the influence of DMSO on tyrosine kinase activity. […]
2. S. Praveen Kumar, Jiri Gut, Rita C. […]

[6] = Homo sapiens, MCF7, 48 h treatment
[7] = Homo sapiens, HepG2, 48 h treatment
[8] = Homo sapiens, A549, 48 h treatment
[9] = Homo sapiens, SCC-15, 48 h treatment

| SMILES | IC50 ([1]; Homo sapiens, HeLa) [µM] | IC50 [2, 6] [µM] | melting point [°C] | IC50 [3, 7] [µM] | IC50 [4, 8] [µM] | IC50 [5, 9] [µM] | tyrosine kinase inhibitory activity, in words (tyrosine kinase) | IC50 (tyrosine kinase) [µM] | activity against the HeLa cell line, in words [1] | IC50 [1] [µM] | IC50 ([2]; 48 h treatment) [µM] | IC50 ([3]; 48 h treatment) [µM] | IC50 ([4]; 48 h treatment) [µM] | IC50 ([5]; 48 h treatment) [µM] | activity against the MCF-7 cell line, in words [2] | activity against the HepG2 cell line, in words [3] |
| --- | --- | --- | --- | --- | --- | --- | --- | --- | --- | --- | --- | --- | --- | --- | --- | --- |
| Cc1ccccc1C[S+]([O-])/C=C1\C(=O)Nc2ccccc21 (centres unmarked) [Compound 6l, (Z)-3-(((2-Methylbenzyl)sulfinyl)methylene)indolin-2-one] | > 100 | 81.6 ± 2.62 | 198 to 199 | > 100 | > 100 | > 100 | weak tyrosine inhibitory activity | 16.02 ± 0.05 |  |  |  |  |  |  |  |  |
| Cc1cccc(C[S+]([O-])/C=C2\C(=O)Nc3ccccc32)c1 (centres unmarked) [Compound 6m, (Z)-3-(((3-Methylbenzyl)sulfinyl)methylene)indolin-2-one] | 27 ± 1.2 | 41.4 ± 2.2 | 174 to 175 | 36 ± 2.13 | 79.32 ± 0.79 | 50.3 ± 1.51 |  | 3.85 ± 0.09 |  |  |  |  |  |  |  |  |
| O=C1Nc2ccccc2/C1=C/[S+]([O-])Cc1ccccc1F (centres unmarked) [Compound 6b, (Z)-3-(((2-Fluorobenzyl)sulfinyl)methylene)indolin-2-one] | 14 ± 0.27 | 49.1 ± 1.08 | 183 to 184 | 47.8 ± 1.47 | > 100 | > 100 |  | 3.74 ± 0.19 | stronger activity than Indo 5 |  |  |  |  |  |  |  |
| O=C1Nc2ccccc2/C1=C/[S+]([O-])Cc1cccc(Cl)c1 (centres unmarked) [Compound 6f, (Z)-3-(((3-Chlorobenzyl)sulfinyl)methylene)indolin-2-one] | 60.3 ± 1.98 | 93 ± 1.5 | 192 to 194 | 86.5 ± 1.15 | > 100 | 96.8 ± 3.76 |  | 5.96 ± 0.14 |  |  |  |  |  |  |  |  |
| Cc1ccccc1NS(=O)(=O)c1ccc2c(c1)/C(=C/c1nc3ccccc3[nH]1)C(=O)N2 [Indo 5, reference compound] |  |  |  |  |  |  |  | 11.6 ± 0.79 |  | 19.6 ± 0.46 | 24.2 ± 0.49 | 22.2 ± 0.41 | 29.16 ± 0.29 | 28.2 ± 1.08 |  |  |
| O=C1Nc2ccc(Br)cc2/C1=C/[S+]([O-])Cc1ccccc1F (centres unmarked) [Compound 6p, (Z)-5-Bromo-3-(((2-fluorobenzyl)sulfinyl)methylene)indolin-2-one] | 19.8 ± 0.25 | 76.4 ± 1.5 | 208 to 209 | > 100 | > 100 | > 100 | weak tyrosine inhibitory activity | 7.93 ± 0.2 |  |  |  |  |  |  |  |  |
| COc1cccc(C[S+]([O-])/C=C2\C(=O)Nc3ccccc32)c1 (centres unmarked) [Compound 6k, (Z)-3-(((3-Methoxybenzyl)sulfinyl)methylene)indolin-2-one] | 22.7 ± 0.64 | 59.1 ± 37 | 181 to 182 | 49.4 ± 1.33 | 62.3 ± 2 | 86.7 ± 5.16 |  | 2.23 ± 0.14 |  |  |  |  |  |  |  |  |
| O=C1Nc2ccccc2/C1=C/[S+]([O-])Cc1ccc(Cl)cc1 (centres unmarked) [Compound 6g, (Z)-3-(((4-Chlorobenzyl)sulfinyl)methylene)indolin-2-one] | 40.9 ± 0.88 | 92.6 ± 0.97 | 193 to 195 | 75.35 ± 0.72 | > 100 | > 100 |  | 3.3 ± 0.03 |  |  |  |  |  |  |  |  |
| O=C1Nc2ccccc2/C1=C/[S+]([O-])Cc1cccc(Br)c1 (centres unmarked) [Compound 6i, (Z)-3-(((3-Bromobenzyl)sulfinyl)methylene)indolin-2-one] | 48.42 ± 0.14 | 75.1 ± 1.93 | 193 to 194 | 71.8 ± 2.18 | 64.9 ± 1.57 | 82.1 ± 3.34 |  | 3.32 ± 0.19 |  |  |  |  |  |  |  |  |
| O=C1Nc2ccccc2/C1=C/[S+]([O-])Cc1ccccc1 (centres unmarked) [Compound 6a, (Z)-3-((Benzylsulfinyl)methylene)indolin-2-one] | 11.2 ± 0.42 | 35.2 ± 1.16 | 191 to 192 | 52.1 ± 0.94 | > 100 | 58.9 ± 0.75 |  | 3.16 ± 0.31 | stronger activity than Indo 5 |  |  |  |  |  | good antitumor activity |  |
| Cc1ccc(C[S+]([O-])/C=C2\C(=O)Nc3ccccc32)cc1 (centres unmarked) [Compound 6n, (Z)-3-(((4-Methylbenzyl)sulfinyl)methylene)indolin-2-one] | 27.8 ± 0.78 | 55.1 ± 1.51 | 186 to 188 | 59 ± 0.97 | 59.6 ± 0.97 | 90.5 ± 2.32 |  | 4.39 ± 0.23 |  |  |  |  |  |  |  |  |
| O=C1Nc2ccccc2/C1=C/[S+]([O-])Cc1ccc(F)cc1 (centres unmarked) [Compound 6d, (Z)-3-(((4-Fluorobenzyl)sulfinyl)methylene)indolin-2-one] | 25 ± 0.68 | 49.12 ± 0.29 | 193 to 194 | 36.2 ± 0.53 | 90.3 ± 2.14 | 65 ± 1.47 |  | 9.3 ± 0.47 |  |  |  |  |  |  |  | considerable cytotoxic activity |
